Data reported in paper PMC4476799, “Englerin A Agonizes the TRPC4/C5 Cation Channels to Inhibit Tumor Cell Line Proliferation” (PLoS ONE, 2015).
Where two headings read alike, the source gives them in different places.

System: cancer cell lines from the cancer cell line encyclopedia (CCLE)
Test: Cell line profiling (CLiP) proliferation experiment
Type: cell-based
Design: ACTIVITY_AREA: scale not given here; AMAX: unit not given here
Conditions: for IC50: read-out: Crossing Point; for EC50: read-out: Inflection Point
Description: Compound profiling experiment and data analysis was performed as previously described. Data was imported and plotted using the Tibco Spotfire DXP application. Lines were categorized as sensitive, intermediate and refractory as follows: Amax<-40 & Inflection Point <2 ~ Sensitive, Amax>-20 & Inflection Point >10 ~ Refractory, all else were called Intermediate. Cancer Cell line HG-U133 Plus 2 data was processed and normalized as described. […] Five sets of refractory cell lines were generated from the pool of refractory cell lines trying to match the lineage composition of the set of sensitive cell lines. The limma package was used as previously described to perform the statistical comparison.

[1] = Homo sapiens, ZR-75-30, ZR-75-30 cell line, breast, ductal_carcinoma
[2] = KYO1, KYO-1 (haematopoietic_and_lymphoid_tissue)
[3] = LP-1 (haematopoietic_and_lymphoid_tissue)
[4] = Loucy (haematopoietic_and_lymphoid_tissue)
[5] = MOLM16, cell line MOLM-16 (haematopoietic_and_lymphoid_tissue)
[6] = NCI-H1869, lung, squamous_cell_carcinoma
[7] = NCI-H2073, NCI-H2073, lung, adenocarcinoma
[8] = OCI-M1, OCI-M1, haematopoietic_and_lymphoid_tissue, acute_myeloid_leukaemia
[9] = PaTuÂ 8988s, cell line PA-TU-8988S
[10] = SH-10-TC, cell line SH-10-TC, stomach
[11] = SNU878, cell line SNU-878, liver, hepatocellular_carcinoma
[12] = SUP-M2, SUP-M2 (haematopoietic_and_lymphoid_tissue, anaplastic_large_cell_lymphoma)
[13] = T24 (urinary_tract, transitional_cell_carcinoma)
[14] = T84 (large_intestine, adenocarcinoma)
[15] = TE-1 (oesophagus, squamous_cell_carcinoma)
[16] = TEN (endometrium, clear_cell_carcinoma)
[17] = TT2609-C02 (thyroid, follicular_carcinoma)
[18] = U266B1 (haematopoietic_and_lymphoid_tissue, plasma_cell_myeloma)

Compound: CC(C)[C@@]12C[C@@H](O)[C@@](C)(O1)[C@@H]1CC[C@@H](C)[C@H]1[C@@H]2OC(=O)/C=C/c1ccccc1 [Englerin B]
- IC50 [1]: > 30 µM
- EC50 [1]: 29.7 µM
- IC50 (Hs766T, cell line Hs 766T, pancreas): > 30 µM
- IC50 (Hs766T, cell line Hs 766T): > 30 µM
- IC50 (Hs 940.T cells): > 30 µM
- IC50 (IGR-39, cell line IGR-39, skin): > 30 µM
- IC50 (IGR-39, cell line IGR-39): > 30 µM
- IC50 (JHH7, JHH-7): 13.7 µM
- IC50 (JHH-2, JHH-2): > 30 µM
- IC50 (JHH-2, cell line JHH-2): > 30 µM
- IC50 (JHH-5): 12.4 µM
- IC50 (JHOM-1): 28.8 µM
- EC50 (JHOM-1): 28.8 µM
- IC50 (JHUEM-2): 15.2 µM
- IC50 (JHUEM-2 cells): 15.2 µM
- IC50 (K029AX (skin)): > 30 µM
- IC50 (K029AX): > 30 µM
- EC50 (K029AX): 26.4 µM
- IC50 (KASUMI-2): 15.8 µM
- EC50 (KASUMI-2): 10.6 µM
- IC50 (KASUMI-2 cells): 15.8 µM
- EC50 (KASUMI-2 cells): 10.6 µM
- EC50 (KHM-1B, KHM-1B cells): 17.2 µM
- IC50 (KHM-1B): 19.5 µM
- EC50 (KHM-1B): 17.2 µM
- IC50 (KMM-1, KMM-1): 15.7 µM
- IC50 (KMRC-1, KMRC-1): > 30 µM
- IC50 (KMRC-1, KMRC-1 cells): > 30 µM
- IC50 (KMRC-2): > 30 µM
- IC50 (KMRC-2 cells): > 30 µM
- IC50 (KMRC-20): > 30 µM
- EC50 (KMRC-20): 0.14 µM
- IC50 (KMRC-20 cells): > 30 µM
- EC50 (KMRC-20 cells): 0.14 µM
- IC50 (KMS-26, KMS-26): 15.5 µM
- EC50 (KMS-26, KMS-26): 16.6 µM
- EC50 (KMS-26, KMS-26 cells): 16.6 µM
- IC50 (KMS-27, KMS-27): 28.4 µM
- EC50 (KMS-27, KMS-27): 28.4 µM
- IC50 (KMS-27, KMS-27 cells): 28.4 µM
- EC50 (KMS-27, KMS-27 cells): 28.4 µM
- IC50 (KMS-28BM): 29.2 µM
- IC50 (KMS-34, KMS-34): 27.9 µM
- IC50 (KO52): 27 µM
- IC50 (KP-1NL (pancreas)): > 30 µM
- IC50 (KP-1NL): > 30 µM
- IC50 (KP-N-SI9s): 21.7 µM
- EC50 (KP-N-SI9s): 23.1 µM
- IC50 (KP-N-YN (autonomic_ganglia)): > 30 µM
- IC50 (KP-N-YN): > 30 µM
- IC50 (KPL-1, KPL-1): 19.9 µM
- IC50 (KS-1): 28.3 µM
- IC50 (KURAMOCHI (ovary)): 20.7 µM
- EC50 (KURAMOCHI (ovary)): 16.1 µM
- IC50 (KYM-1 (soft_tissue)): 12.7 µM
- IC50 [2]: 19.7 µM
- EC50 [2]: 12.1 µM
- EC50 (KYO1, KYO-1 cells): 12.1 µM
- IC50 (Karpas-620, KARPAS-620): 17.6 µM
- EC50 (Karpas-620, KARPAS-620): 17.6 µM
- IC50 (Kelly): 15.4 µM
- EC50 (Kelly): 16 µM
- IC50 (Ki-JK (haematopoietic_and_lymphoid_tissue)): 14.5 µM
- IC50 (Ki-JK): 14.5 µM
- EC50 (Ki-JK): 14.1 µM
- IC50 (L3.3 (pancreas)): > 30 µM
- IC50 (LC-1/sq-SF (lung)): > 30 µM
- EC50 (LC-1/sq-SF (lung)): 22.8 µM
- IC50 (LK-2 (lung)): > 30 µM
- IC50 (LMSU (stomach)): 20 µM
- IC50 [3]: 18.7 µM
- EC50 [3]: 18.7 µM
- IC50 (LP-6 (soft_tissue)): > 30 µM
- IC50 (Li-7 (liver)): > 30 µM
- IC50 [4]: 13.6 µM
- EC50 [4]: 12.2 µM
- IC50 (MB 157 (breast)): > 30 µM
- EC50 (MB 157 (breast)): 14.7 µM
- IC50 (MCAS (ovary)): > 30 µM
- IC50 (MDST8, MDST8 (large_intestine)): > 30 µM
- IC50 [5]: 15.3 µM
- EC50 [5]: 15.3 µM
- IC50 (Mel202, cell line Mel202 (eye)): > 30 µM
- EC50 (Mel202, cell line Mel202 (eye)): 20.6 µM
- IC50 (Mel202, cell line Mel202): > 30 µM
- IC50 (Mono-Mac-1, cell line MONO-MAC-1 (haematopoietic_and_lymphoid_tissue)): 21.4 µM
- IC50 (NCI-H196, NCI-H196, lung, small_cell_carcinoma): > 30 µM
- IC50 (NCI-H196, cell line NCI-H196): > 30 µM
- IC50 (NCI-H841, NCI-H841, lung, small_cell_carcinoma): 17.1 µM
- IC50 (NCI-H1568, cell line NCI-H1568 (lung)): 6.63 µM
- IC50 (NCI-H1781, cell line NCI-H1781 (lung)): 11.2 µM
- IC50 [6]: > 30 µM
- EC50 [6]: 2.95 µM
- IC50 (NCI-H1869 cells): > 30 µM
- EC50 (NCI-H1869 cells): 2.95 µM
- IC50 (NCI-H2023, NCI-H2023, lung, adenocarcinoma): 13.3 µM
- IC50 [7]: 24 µM
- EC50 [7]: 20.3 µM
- IC50 (NCI-H2106, lung, non_small_cell_carcinoma): > 30 µM
- IC50 (NCI-H2172, NCI-H2172, lung, non_small_cell_carcinoma): 24.8 µM
- IC50 (NCI-H2330, lung, small_cell_carcinoma): > 30 µM
- IC50 (OC 316, ovary, adenocarcinoma): > 30 µM
- IC50 [8]: 13.5 µM
- EC50 [8]: 11.8 µM
- EC50 (OCI-M1, OCI-M1 cells): 11.8 µM
- IC50 (OMM2.3 (eye)): > 30 µM
- IC50 (OMM2.5 cells): > 30 µM
- IC50 (ONCO-DG-1, cell line ONCO-DG-1): 3.52 µM
- EC50 (OUMS-23, OUMS-23 cells): 17.7 µM
- IC50 (OUMS-23, cell line OUMS-23): 14.8 µM
- EC50 (OUMS-23, cell line OUMS-23): 17.7 µM
- IC50 (OV7, OV7 cells): > 30 µM
- IC50 (OV56, OV56 cells): > 30 µM
- IC50 (OV56, cell line OV56): > 30 µM
- EC50 (PL-21, PL-21 cells): 26.2 µM
- IC50 (PL-21, cell line PL-21): 21 µM
- EC50 (PL-21, cell line PL-21): 26.2 µM
- IC50 [9]: 23.3 µM
- EC50 [9]: 23.3 µM
- IC50 (RCC10RGB cells): > 30 µM
- EC50 (RCH-ACV cells): 12.1 µM
- IC50 (RERF-LC-AI cells): > 30 µM
- EC50 (RERF-LC-AI cells): 17.9 µM
- IC50 (RKN (soft_tissue)): > 30 µM
- EC50 (RKO (large_intestine)): 13.1 µM
- IC50 (RMUG-S (ovary)): > 30 µM
- IC50 (Ri-1, RI-1 cells): 9.99 µM
- EC50 (Ri-1, RI-1 cells): 9.99 µM
- IC50 (SH-4 (skin)): > 30 µM
- IC50 (SH-10-TC, SH-10-TC (stomach)): > 30 µM
- IC50 [10]: > 30 µM
- EC50 [10]: 11.1 µM
- IC50 (SNG-M (endometrium)): > 30 µM
- IC50 [11]: 27.3 µM
- EC50 [11]: 27.3 µM
- IC50 (SNU-119 (ovary)): > 30 µM
- IC50 (SNU-216, SNU-216 (stomach)): > 30 µM
- IC50 (SNU-216, cell line SNU-216, stomach): > 30 µM
- IC50 (SNU-738 (central_nervous_system)): > 30 µM
- IC50 (SNU-C5 (large_intestine)): > 30 µM
- IC50 (SNU-C5 (large_intestine, adenocarcinoma)): > 30 µM
- IC50 (SR-786, SR-786 (haematopoietic_and_lymphoid_tissue)): > 30 µM
- IC50 (SR-786, SR-786 (haematopoietic_and_lymphoid_tissue, anaplastic_large_cell_lymphoma)): > 30 µM
- IC50 (SUM52, SUM-52 (breast)): > 30 µM
- IC50 (SUM52, SUM-52 (breast, NS)): > 30 µM
- IC50 (SUM52PE, SUM52PE (breast)): > 30 µM
- IC50 (SUM52PE, SUM52PE (breast, NS)): > 30 µM
- IC50 [12]: 18.2 µM
- EC50 [12]: 18.2 µM
- IC50 (SUP-M2, SUP-M2 cells): 18.2 µM
- EC50 (SUP-M2, SUP-M2 cells): 18.2 µM
- IC50 (SW1271, SW 1271 (lung)): > 30 µM
- IC50 (SW1271, SW 1271 (lung, small_cell_carcinoma)): > 30 µM
- IC50 (T24 (urinary_tract)): > 30 µM
- IC50 [13]: > 30 µM
- EC50 [13]: 5 µM
- IC50 [14]: 28.3 µM
- EC50 [14]: 9.52 µM
- IC50 (T778 (soft_tissue)): > 30 µM
- IC50 (T778 (soft_tissue, well_differentiated)): > 30 µM
- IC50 (TC-71, TC-71 (bone, NS)): 25.2 µM
- IC50 (TE 617.T (soft_tissue, NS)): 16.5 µM
- EC50 (TE 617.T (soft_tissue, NS)): 11.9 µM
- EC50 (TE 617.T cells): 11.9 µM
- IC50 [15]: 18.9 µM
- EC50 [15]: 16.5 µM
- IC50 (TE-5 (oesophagus, squamous_cell_carcinoma)): 29.6 µM
- IC50 (TE-6 (oesophagus, squamous_cell_carcinoma)): 23.8 µM
- IC50 (TEN (endometrium)): > 30 µM
- IC50 [16]: > 30 µM
- EC50 [16]: 13.1 µM
- IC50 (TF-1 (haematopoietic_and_lymphoid_tissue, acute_myeloid_leukaemia)): 16.7 µM
- IC50 [17]: 22.3 µM
- EC50 [17]: 14.6 µM
- EC50 (TT2609-C02 cells): 14.6 µM
- IC50 (U266B1 (haematopoietic_and_lymphoid_tissue)): > 30 µM
- IC50 [18]: > 30 µM
- EC50 [18]: 16 µM
- ACTIVITY_AREA (UACC-62 cell line, skin, NS): 41.15
- AMAX (UACC-62 cell line, skin, NS): -44.29
- RESPONSE (UACC-62 cell line, skin, NS): INTERMEDIATE
- ACTIVITY_AREA (UACC-257 (skin, NS)): 31.33
- AMAX (UACC-257 (skin, NS)): -80.26
- RESPONSE (UACC-257 (skin, NS)): INTERMEDIATE
